Values quoted from earlier work in patent publication US20060287520A1, “Synthesis of salinosporamide A and analogues thereof” (priority 2005, published 2006).

Legend:
[1] = system: 20S proteasome; settings: times more potent than omuralide, same molecular target (20S proteasome)
[2] = read-out: in vitro cytotoxicity IC50; background statement; cell line not given

For `C[C@@]12OC(=O)[C@]1([C@@H](O)[C@@H]1C=CCCC1)NC(=O)[C@@H]2CCCl` [Salinosporamide A], the “potency relative to omuralide (2)” value [1] is given as “approximately 35 times” and the IC50 [2] is given as ~10 nM.
